Experiments:
p75-Fc = molecular target: T1, p75-Fc (Homo sapiens, UniProt P08138); test: Competitive ELISA, p75-Fc binding to immobilized NGF; settings: competitive ELISA, FIG. 1A, compound at 30 μM
T1 construct: purchased R&D
T1 sequence (P08138 29-250 limits assumed): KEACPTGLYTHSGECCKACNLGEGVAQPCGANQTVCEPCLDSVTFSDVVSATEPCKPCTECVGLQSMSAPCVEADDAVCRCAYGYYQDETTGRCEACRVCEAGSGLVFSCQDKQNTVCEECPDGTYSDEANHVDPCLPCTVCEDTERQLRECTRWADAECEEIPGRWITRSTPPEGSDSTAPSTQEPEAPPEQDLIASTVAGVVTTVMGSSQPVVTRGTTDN
Method: (§1) The effect of compounds I-B and LM-24 on the binding between NGF and p75 was tested in competitive ELISA assays, where the antagonists prevent soluble p75 from binding to immobilized NGF. The selectivity of antagonism was evaluated by lack of effect upon NGF-TrkA or lack of effect between NGF and anti-NGF monoclonal antibody (mAb) NGF30 interactions (FIG. 1A).
The compound LM-24 has been reported by others (Massa et al., 2006). Binding studies were carried out with all the compounds using I-B as reference.
(§2) Competitive ELISAs were performed as described (Saragovi et al., 1998). The procedure immobilized 50 ng/well NGF, or pro-NGF (Alomone Labs, Israel) onto polystyrene 96-well microtest plates, with washing and blocking with binding buffer (BB; phosphate buffered saline containing 0.5% bovine serum albumin). The following primary reagents in BB were added: recombinant chimeric p75-Fc or recombinant chimeric TrkA-Fc (R&D), or anti-NGF mAb NGF30 (Saragovi et al., 1998); each at 50 nM. The competitors I-B and the other test compounds (or control LM-24) were added at the indicated concentrations, and the plates were incubated for 45 minutes. After washing 3× in BB, HRP-conjugated secondary reagents (Sigma) were added for 30 min (goat anti-human Fc for p75-Fc and for TrkA-Fc; and goat anti-rat Ab for NGF30 mAb), and then wells were washed 3× in BB and 1× in PBS. Peroxidase activity was determined colorimetrically using the substrate TMB One Solution (Promega). The reaction was stopped with 0.5 N H2SO4 and the plates were read at 450 nm (Benchmark Plus, Bio-Rad). Assays were repeated n>4 times, with replicates of 4 wells each assay. […] Wells with no NGF immobilized but with all other reagents added were treated as background (<15% of maximal signals) and standardized to 0% binding.

TrkA-Fc = molecular target: T2, TrkA-Fc (Homo sapiens, UniProt P04629); test: Competitive ELISA, TrkA-Fc binding to immobilized NGF (selectivity control); settings: competitive ELISA, FIG. 1A, compound at 30 μM
T2 construct: purchased R&D
Method: as §1, §2

anti-NGF mAb NGF30 = test: Competitive ELISA, anti-NGF mAb NGF30 binding to immobilized NGF (selectivity control); settings: competitive ELISA, FIG. 1A, compound at 30 μM
Method: as §1, §2

[1] = system: NGI (NFL-GCL-IPL) retinal layers; test: ON axotomy model, retinal NGI thickness by FD-OCT; format: in vivo; settings: rat ON axotomy, 3 μg intravitreal immediately after axotomy, days 11 and 14, versus untreated axotomy
Method: Antagonists of p75NTR prevented loss of retinal structure after ON axotomy. The relative in vivo efficacy for I-B and LM-24 was tested using the ON axotomy model. A quantitative non-invasive structural endpoint, FD-OCT, was performed in the same animal over time to measure the integrity of the neuronal layers. We quantified the axons and fibers of the RGCs that contribute to the thickness of the Nerve Fiber Layer (NFL), the Ganglion Cell Layer (GCL), and the Inner Plexiform Layer (IPL), herein termed NGI. Maintenance of NGI structure correlates with RGC health (Bai et al., 2010a).
Wistar rats (female, 250-300 g; Charles River) were kept in a 12 hours dark-light cycle with food and water ad libitum. All animal manipulations were performed between 9 AM and 12 AM. […]
FD-OCT is a non-invasive method that allows time-kinetic studies in the same animal. […] In each B-scan the thickness of the NFL-GCL-IPL (NGI) was measured at four adjacent points at a distance 1.5 mm from the ON head. […]
(§3) For studies in the glaucoma animal model the injections were performed at days 14 and 21 after cauterization. […] Thus, in this paradigm there is pre-existing damage for 14 days before treatment (measured at ˜8% RGC death (Shi et al., 2007; Shi et al., 2008)); and the treatments require long-lived efficacy in the constant presence of retinal stress due to high IOP. […]

[2] = system: retinal ganglion cells (RGCs); test: ON axotomy model, quantification of surviving RGCs (fluorogold labeled); format: in vivo; settings: rat ON axotomy, one intravitreal injection 3 μg, day 14; contralateral normal eye = 100%; control axotomy 10%
Method: (§4) Wistar rats (female, 250-300 g; Charles River) were kept in a 12 hours dark-light cycle with food and water ad libitum. All animal manipulations were performed between 9 AM and 12 AM. Deep anesthesia was used during cauterization (induction of glaucoma), ON transection, fluorogold labeling, intraocular injection procedures, Optical Coherence Tomography measurements, and euthanasia (ketamine, xylazine, acepromazine injected intraperitoneally: 50/5/1 mg/kg, as per IACUC recommendations). For measuring IOP, light anesthesia was used (a gas mixture of Oxygen, 2% isofluorane mixture, at a rate of 2.5 liter/min, as per IACUC recommendations).
The ON axotomy model in the rat (Bai et al., 2010a) was used. […]
as §3
(§5) Quantification of labeled RGCs was performed as reported (Shi et al., 2007; Shi et al., 2008). […] Pictures for each freshly flat-mounted retina were taken using a Zeiss fluorescence microscope (Carl Zeiss Meditec, Jena, Germany), with 12 pictures/retina at 20× magnification. […]

[3] = system: retinal ganglion cells (RGCs); test: Glaucoma (episcleral vein cauterization) model, quantification of surviving RGCs; format: in vivo; settings: rat glaucoma, intravitreal injections days 14 and 21, endpoint day 42 (FIG. 2D)
Method: as §4
The episcleral vein cauterization (EVC) model of rat (Shi et al., 2007; Shi et al., 2008) was used. […]
as §3, §5

T2 sequence (P04629 33-423 limits assumed): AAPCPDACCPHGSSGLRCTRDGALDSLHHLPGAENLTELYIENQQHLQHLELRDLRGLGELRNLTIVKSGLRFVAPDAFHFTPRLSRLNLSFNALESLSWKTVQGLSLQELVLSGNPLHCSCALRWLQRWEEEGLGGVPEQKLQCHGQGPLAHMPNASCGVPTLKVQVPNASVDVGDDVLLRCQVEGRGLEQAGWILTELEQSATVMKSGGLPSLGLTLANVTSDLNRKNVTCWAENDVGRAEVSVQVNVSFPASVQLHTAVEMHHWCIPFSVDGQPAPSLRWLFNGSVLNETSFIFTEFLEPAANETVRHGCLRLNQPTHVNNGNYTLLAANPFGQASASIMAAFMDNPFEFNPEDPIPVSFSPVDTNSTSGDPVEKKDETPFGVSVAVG

CN(C)CCCNC(=O)Cn1cnc2c1c(=O)n(C)c(=O)n2C [LM-24, reference compound]
effect on NGF-p75NTR interaction (p75-Fc): antagonized NGF-p75NTR interactions selectively
effect on binding of TrkA to NGF (TrkA-Fc): did not interfere
effect on mAb NGF30 binding to NGF (anti-NGF mAb NGF30): did not interfere
preservation of NGI thickness (FD-OCT) [1]: very limited preservation of the NGI thickness
RGCs surviving [2]: 21%
prevention of RGC death [3]: significantly prevent the death of RGCs

— patent US9296691B2, “Inhibitors of p75 receptor and their uses” (Horacio Uri Saragovi, priority 2010, dated 2016)
